Assay results taken from patent US6846826B2, “Phenoxypropanol connected with phenylpiperazine and phenoxyalkylamine terminal in its side chain” (priority 2001, dated 2005).

Experiments:
β1 [1] = target: T1, β1 (Rattus norvegicus, UniProt P18090); experiment: Isolated rat right atrium, antagonism of L-isoproterenol-induced rate increase (Schild plot); conditions: for β1 pA2 value, Right atrium: vs L-isoproterenol, mean ± S.E. of six to eight
T1 construct: The right and left atria were then separated; from tissue; host or cells: isolated rat right atrium (spontaneously beating) and left atrium (electrically driven)
Method: The entire heart of rat (weighing 200˜300 g) was removed immediately after the rat was sacrificed and the blood drained by incised carotid arteries, and placed in Kreb's solution equilibrated to a mixture of 95% O2 and 5% CO2 at room temperature (20˜25° C.). The right and left atria were then separated.
The spontaneously-beating right atria was clipped on both end by heart shaped clips, where one end was fixed at the bottom of 10 ml of tissue bath made of physiological saline solution, and temperature maintained at 37° C. The other end of the atria was connected to a force transducer, and isometric contractions and beating rate of the right atria were recorded by COULBOURN AT-High-Speed VideoFigure. After the samples were given 250 mg of contractions and reach equilibrium the following experiments were carried out:
(§1) When the spontaneously beating rate of right atria reached a certain stability, cumulative administration of L-isoproterenol from 1×10^−[…] M caused the heart rate to increase continuously, and a cumulative dose-response curve was obtained. Then the L-isoproterenol was thoroughly washed off with Kreb's solution to recover the right atria's heart rate stability. After the equilibrum was reached again for at least 60 minutes, different concentrations (10^−7, 10^−6, 10^−5 M) of compounds were added. 30 minutes later, cumulative administration of L-isoproterenol from […] were carried out again, and another new cumulative dose-response curve was obtained. Administration of L-isoproterenol started from concentration 1×10^−10 M, and the concentration was raised 0.5 log each time for a total of six times. Cumulative administration interval was when the previous concentration reached its greatest effect, the next concentration would be immediately given. The time interval was approximately 3˜5 minutes, and the EC50 value could be obtained. From Schild plots, the pA2 of compounds could be found. In other groups of rats, after separate administration of test compounds, their pA2 values were obtained.
(§2) According to the method mentioned by Arunlakshana, O. et al.(Br. J. Pharmacol. Vol.14, pp. 48-57, 1959), which used the logarithm values of compound concentration testings as the x-coordinates, and the logarithm values of blocking agent of similar effect and […] as the y-coordinates, the data obtained were plotted into Figures and the slope of regression found. From x-coordinates of the line of regression, the intercept value was found, which is the pA2 value of the compound under testing. The equation is as follows: [formula] [formula] • [B]=Test compound concentration in moles • KB: equilibrium dissociation constant • n: value of slope • DR: test EC50 divided by control EC50 • CF: EC50 of second or third control groups divided by EC50 of first control group

[2] = Heart rate and blood pressure in living rat (anaesthetized, i.v.); assay type: in vivo, Wistar rat; conditions: via femoral vein, dose not given (method: 0.5; 1.0; 3.0 mg/kg)
From the text: Male Wistar rats, weighing 200˜300 g were abdominal anaesthetized with pentobarbital sodium. Tracheal was cannulated to maintain normal respiration. Polyethylene tube (inside diameter 0.58 mm, outside diameter 0.97 mm) was inserted into the left femoral vein to facilitate drug administration. A 3-way stopcock was used, with one end connected to a syringe for drug injection, while the other end was connected to the syringe filled with physiological saline. The latter was used to prevent residual drugs in the polyethylene tube after injection, which would affect experimental accuracy.
The right femoral artery was also inserted with polyethylene, and a 3-way stopcock was used tool, where one end was connected to heparin solution to prevent embolism. The other end was connected to a Disposable Diaphragm Dome, TA10019, and linked to a transducer. Through an amplifier, a recorder recorded the overall and average arterial pressure; heart rate to evaluate the effect of drug on blood pressure and heart rate. Different concentrations 0.5; 1.0; 3.0 mg/kg of compounds were given to the rats via femoral vein and the differences in the heart rate and blood pressure were compared. Furthermore in another group, test compounds of concentration 0.5; 1.0; 3.0 mg/kg were separately given to different rats via femoral vein, and the differences in the heart rate and blood pressure were compared.

β1 [3] = target: T1, β1; experiment: Isolated rat left atrium (electrically driven), antagonism of L-isoproterenol (Schild plot); conditions: for β1 pA2 value, Left atrium: vs L-isoproterenol, mean ± S.E. of six to eight
Method: as §1, §2
The inspontaneously-beating left atrial tissue was obtained from rat's isolated right atrial tissue experiments. […] The contraction rate was 2 Hz and the resting tension 0.5 gm. After 60 minutes of equilibration, the following experiments were performed: • (a) Completion of cumulative concentration-response curve: similar to experimental method on isolated right atrium; • (b) Calculation of pA2 value: similar to calculation method on isolated right atrium.

α1 = experiment: Isolated Wistar rat thoracic aorta, antagonism of norepinephrine contraction (Schild plot); conditions: vs norepinephrine, mean ± S.E. of six to eight
Method: (§3) After sacrificing Wistar rat of weight between 200˜300 gm, the thoracic aorta was immediately removed and placed in cold Kreb's solution. The fatty connecting tissue surrounding the vessel wall was removed and the thoracic aorta was cut into rings of length 5 mm. The two ends of each ring was pieced and fixed with “Z” shaped platinum wires. Then the thoracic aorta was suspended in 10 ml of tissue bath, aerated with air mixture (95% O2+5% CO2) and maintained at 37° C., where one end was fixed at the bottom of tissue trough, the other end connected to force transducer to record the long contraction via recorder. The sample was given 1 gm of tension and equilibrated for 60 minutes before the following experiments were carried out.
After thoracic aorta had reached equilibrium in the tissue trough, cumulative administration of norepinephrine from 10^−10˜3×10^−4 M caused the blood vessel contract to increase tension continuously, and a cumulative dose-response curve was obtained. Then the norepinephrine was thoroughly washed off with Kreb's solution to recover the aorta stability. After the equilibrum was reached again for at least 60 minutes, different concentrations as 10^−7, 10^−6, 10^−5 M of test compounds were added. 30 minutes later, cumulative administration of norepinephrine from […] were carried out again, and another new cumulative dose-response curve was obtained. Administration of norepinephrine started from concentration 1×10^−10 M, and the concentration was raised 0.5 log each time. Cumulative administration interval was when the previous concentration reached its greatest effect, the next concentration would be immediately given. The time interval was approximately 3˜5 minutes, and the EC50 value could be obtained. From Schild plots, the pA2 of test compounds could be found. Calculation of pA2 value: similar to calculation method on isolated right atrium.

β2 = target: T2, β2 (Cavia porcellus, UniProt Q8K4Z4); experiment: Isolated guinea pig trachea, antagonism of L-isoproterenol relaxation (Schild plot); conditions: for β2 pA2 value, Trachea: vs L-isoproterenol, mean ± S.E. of six to eight
T2 construct: a portion of tracheal approximately 4 cm long was removed; from tissue; host or cells: isolated guinea pig trachea (reserpinised animals)
Method: Guinea pigs of weight between 250˜350 gm were used.
After the guinea pigs were sacrificed, a slit was made along the neck, and a portion of tracheal approximately 4 cm long was removed. The tracheal was then placed in Kreb's solution aerated with a mixture of 95% O2 and 5% CO2 and maintained at room temperature about 22˜25° C. […] The two ends of the tracheal were clamped with frog-heart shaped clamps, one end was fixed at the bottom of tissue bath filled with 200 ml of Kreb's solution, maintained at 37° C., while the other end was connected to a force transducer. Through a COULBOURN AT-High-Speed Videograph, long isometric contractions were recorded. After the sample was given 1.5 gm of tension and equilibrated, the following experiments were performed:
Then the tracheal was repeatedly washed with Kreb's solution for 20 minutes and […] of carbochol was added to cause contraction in the guinea pig's tracheal. When the contraction reached the maximum, every division of tracheal was used to complete two concentration response curve of L-isoproternol, one of them without administration of test compound and used as control; while the other curve was administered with 10^−7, 10^−6 and 10^−5 M test compounds for 30 minutes before concentration response curve was completed. This is the test group.
Similar to the calculation method for isolated right atrium experiment.

Calcium = experiment: Isolated Wistar rat thoracic aorta, antagonism of CaCl2-induced contraction; conditions: vs CaCl2
Method: as §3
After thoracic aorta had reached equilibrium in the tissue trough, cumulative administration of CaCl2 from […] caused the blood vessel contract to increase tension continuously, and a cumulative dose-response curve was obtained. Then the CaCl2 was thoroughly washed off with Kreb's solution to recover the aorta stability. After the equilibrum was reached again for at east 60 minutes, different concentrations as 10^−8, 10^−7, 10^−6 M of test compounds were added. 30 minutes later, cumulative administration of CaCl2 from 3×10^−5˜10^−2 M were carried out again, and another new cumulative dose-response curve was obtained. Cumulative administration interval was when the previous concentration reached its greatest effect, the next concentration would be immediately given. The time interval was approximately 3˜5 minutes, and the EC50 value could be obtained. From Schild plots, the pA2 of test compounds could be found. Calculation of pA2 value: similar to calculation method on isolated right atrium.

T2 sequence (Q8K4Z4 whole entry): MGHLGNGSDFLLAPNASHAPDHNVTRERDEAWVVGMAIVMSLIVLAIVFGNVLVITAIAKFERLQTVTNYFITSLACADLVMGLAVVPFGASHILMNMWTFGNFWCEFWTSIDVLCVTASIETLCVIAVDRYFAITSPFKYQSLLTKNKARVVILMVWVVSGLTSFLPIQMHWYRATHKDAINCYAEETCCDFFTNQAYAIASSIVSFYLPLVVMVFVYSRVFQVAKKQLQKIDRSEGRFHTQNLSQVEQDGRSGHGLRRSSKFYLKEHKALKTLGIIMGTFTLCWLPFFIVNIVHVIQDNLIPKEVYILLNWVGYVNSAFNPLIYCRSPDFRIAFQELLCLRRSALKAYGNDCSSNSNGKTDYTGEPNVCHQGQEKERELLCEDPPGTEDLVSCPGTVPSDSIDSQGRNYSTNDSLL
T1 sequence (P18090 whole entry): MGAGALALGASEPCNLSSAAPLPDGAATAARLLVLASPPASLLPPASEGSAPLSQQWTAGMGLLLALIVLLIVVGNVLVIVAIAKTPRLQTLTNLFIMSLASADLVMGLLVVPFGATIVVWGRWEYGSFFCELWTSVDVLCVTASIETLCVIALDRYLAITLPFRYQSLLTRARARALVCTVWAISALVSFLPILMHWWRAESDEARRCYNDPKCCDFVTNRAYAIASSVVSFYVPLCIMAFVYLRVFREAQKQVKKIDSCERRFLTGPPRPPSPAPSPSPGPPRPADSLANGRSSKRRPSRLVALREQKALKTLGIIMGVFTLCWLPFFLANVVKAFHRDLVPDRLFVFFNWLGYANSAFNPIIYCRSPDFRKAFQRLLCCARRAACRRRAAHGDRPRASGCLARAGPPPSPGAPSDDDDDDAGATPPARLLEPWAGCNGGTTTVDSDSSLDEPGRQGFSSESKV

Row | β1 Slope of Schild plot, Right atrium (β1 [1]) | β1 pA2 value, Right atrium (β1 [1]) | β1 Slope of Schild plot, Left atrium (β1 [3]) | β1 pA2 value, Left atrium (β1 [3]) | β2 Slope of Schild plot, Trachea (β2) | β2 pA2 value, Trachea (β2) | SMILES | Decrease of blood pressure [2] [mmHg] | α1 pA2 value, Aorta (α1) | Calcium PKCa^−1 value, Aorta (Calcium)
1 | (1.12 ± 0.06) | 6.24 ± 0.06 | (1.07 ± 0.05) | 6.15 ± 0.09 | (0.65 ± 0.03) | 5.07 ± 0.12 | COC(=O)C1=C(C)NC(C)=C(C(=O)OC)C1c1ccc(OCC(O)CNCCOc2ccccc2Cl)c(OC)c1 (stereo not drawn) [Labedipinedilol-E] | 58 ± 7 | 8.46 ± 0.05 | 8.08 ± 0.04
2 | (0.97 ± 0.10) | 6.61 ± 0.11 | (0.83 ± 0.06) | 6.81 ± 0.08 | (0.85 ± 0.03) | 6.48 ± 0.07 | COC(=O)C1=C(C)NC(C)=C(C(=O)OC)C1c1ccc(OCC(O)CNCCOc2ccccc2OC)cc1 (stereo not drawn) [Labedipinedilol-B] | 60 ± 15 | 7.55 ± 0.05 | 8.02 ± 0.04
3 | (1.02 ± 0.04) | 7.01 ± 0.09 | (0.99 ± 0.03) | 7.23 ± 0.07 | (0.92 ± 0.02) | 5.54 ± 0.16 | COC(=O)C1=C(C)NC(C)=C(C(=O)OC)C1c1ccc(OCC(O)CN2CCN(c3ccccc3Cl)CC2)c(OC)c1 (stereo not drawn) [Labedipinedilol-C] | 50 ± 17 | 6.87 ± 0.08 | 8.12 ± 0.04

Row | SMILES | β1 Slope of Schild plot, Right atrium (β1 [1]) | β1 pA2 value, Right atrium (β1 [1]) | β1 Slope of Schild plot, Left atrium (β1 [3]) | β1 pA2 value, Left atrium (β1 [3]) | β2 Slope of Schild plot, Trachea (β2) | β2 pA2 value, Trachea (β2) | Decrease of blood pressure [2] [mmHg] | α1 pA2 value, Aorta (α1) | Calcium PKCa^−1 value, Aorta (Calcium)
4 | COC(=O)C1=C(C)NC(C)=C(C(=O)OC)C1c1ccc(OCC(O)CNCCOc2ccccc2C)c(OC)c1 (stereo not drawn) [Labedipinedilol-D] | (0.84 ± 0.03) | 7.23 ± 0.03 | (1.12 ± 0.04) | 6.31 ± 0.12 | (1.10 ± 0.06) | 5.70 ± 0.06 | 55 ± 9 | 7.23 ± 0.05 | 8.23 ± 0.06
